In patent publication US9409892B2, “4-hydroxy-isoquinoline compounds as HIF hydroxylase inhibitors” (FIBROGEN, INC., priority 2012, dated 2016):

Columns and labels:
PHD1 (EGLN2) = PHD1 (EGLN2) (Homo sapiens (Human), UniProt Q96KS0); experiment: HIF-PH assay (14CO2 capture), PHD1 enzyme inhibition; type: biochemical; conditions: Table 1; for IC50: individual measurement, read-out: IC50 (μM) PHD1; for PHD2/PHD1: ratio of the IC50 of the compound for each enzyme
From the text: (§1) Ketoglutaric acid α-[1-^14C]-sodium salt, alpha-ketoglutaric acid sodium salt, and HPLC purified peptide may be obtained from commercial sources, e.g., Perkin-Elmer (Wellesley Mass.), Sigma-Aldrich, and SynPep Corp. (Dublin Calif.), respectively. Peptides for use in the assay may be fragments of HIFα as described above or as disclosed in International Publication WO 2005/118836, incorporated by reference herein. HIF-pH, e.g., PHD1 (EGLN2) or PHD2 (EGLN1), can be expressed in, e.g., insect Hi5 cells, and partially purified, e.g., through a SP ion exchange chromatography column. Enzyme activity is determined by capturing ^14CO2 using an assay described by Kivirikko and Myllyla (1982, Methods Enzymol. 82:245-304). Assay reactions contain 50 mM HEPES (pH 7.4), 100 μM α-ketoglutaric acid sodium salt, 0.30 mCi/mL ketoglutaric acid α-[1-^14C]-sodium salt, 40 μM FeSO4, 1 mM ascorbate, 1541.8 units/mL Catalase, with or without 50 μM peptide substrate and various concentrations of compound of the invention. Reactions are initiated by addition of HIF-PH enzyme.
(§2) The peptide-dependent percent turnover is calculated by subtracting percent turnover in the absence of peptide from percent turnover in the presence of substrate peptide. Percent inhibition and IC50 are calculated using peptide-dependent percent turnover at given inhibitor concentrations. Calculation of IC50 values for each inhibitor is conducted using GraFit software (Erithacus Software Ltd., Surrey UK).
(§3) The PHD2/PHD1 is the ratio of the IC50 of the compound for each enzyme.

PHD2 (EGLN1) = PHD2 (EGLN1) (Homo sapiens (Human), UniProt Q9GZT9); experiment: HIF-PH assay (14CO2 capture), PHD2 enzyme inhibition; type: biochemical; conditions: Table 1; individual measurement; read-out: IC50 (μM) PHD2
From the text: as §1, §2, §3

PHD1 (EGLN2), sequence (Q96KS0 whole entry, the tested form may be a part): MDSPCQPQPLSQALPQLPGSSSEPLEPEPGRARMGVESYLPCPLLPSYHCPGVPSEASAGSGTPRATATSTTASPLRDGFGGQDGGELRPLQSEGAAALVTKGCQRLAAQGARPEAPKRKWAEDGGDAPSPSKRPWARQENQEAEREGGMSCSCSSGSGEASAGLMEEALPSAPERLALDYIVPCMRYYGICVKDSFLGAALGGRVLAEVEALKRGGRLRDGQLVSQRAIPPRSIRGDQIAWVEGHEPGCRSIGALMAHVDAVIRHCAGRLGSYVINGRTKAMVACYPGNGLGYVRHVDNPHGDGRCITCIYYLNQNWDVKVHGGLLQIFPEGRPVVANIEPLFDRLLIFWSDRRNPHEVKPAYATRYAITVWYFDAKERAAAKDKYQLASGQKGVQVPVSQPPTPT
PHD2 (EGLN1), sequence (Q9GZT9 whole entry): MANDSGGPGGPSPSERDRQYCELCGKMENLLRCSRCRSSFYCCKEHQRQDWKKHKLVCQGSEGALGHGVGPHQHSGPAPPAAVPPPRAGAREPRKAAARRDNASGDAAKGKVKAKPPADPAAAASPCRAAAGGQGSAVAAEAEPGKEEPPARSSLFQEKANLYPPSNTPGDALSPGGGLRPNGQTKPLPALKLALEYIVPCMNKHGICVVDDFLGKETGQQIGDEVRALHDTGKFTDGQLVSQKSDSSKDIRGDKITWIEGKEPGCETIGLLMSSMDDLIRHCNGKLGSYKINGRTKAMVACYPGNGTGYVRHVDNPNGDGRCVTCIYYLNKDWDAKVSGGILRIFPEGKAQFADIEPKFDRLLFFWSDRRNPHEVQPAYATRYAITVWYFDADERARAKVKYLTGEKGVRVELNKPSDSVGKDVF

SMILES | IC50 (PHD1 (EGLN2)) | PHD2/PHD1 (PHD1 (EGLN2)) | IC50 (PHD2 (EGLN1))
O=C(O)CCCNC(=O)c1ncc2cc(-c3ccc(F)cc3)ccc2c1O [Compound 148, 4-{[7-(4-Fluoro-phenyl)-4-hydroxy-isoquinoline-3-carbonyl]-amino}-butyric acid] | 2.88 µM | 9 | 24.5 µM
O=C(O)CCCNC(=O)c1ncc2cc(NC(=O)NCc3ccccc3)ccc2c1O [Compound 134, 4-{[7-(3-Benzyl-ureido)-4-hydroxy-isoquinoline-3-carbonyl]-amino}-butyric acid] | 2.15 µM | 6 | 13.4 µM
CC(C)(CNC(=O)c1nc(C#N)c2cc(Oc3ccc(Cl)cc3)ccc2c1O)C(=O)O [Compound 40, 3-{[7-(4-Chloro-phenoxy)-1-cyano-4-hydroxy-isoquinoline-3-carbonyl]-amino}-2,2-dimethyl-propionic acid] | 0.3 µM | 13 | 4.01 µM
CC(C)(CNC(=O)c1nc(C#N)c2ccc(Oc3ccccc3)cc2c1O)C(=O)O [Compound 123, 3-[(1-Cyano-4-hydroxy-6-phenoxy-isoquinoline-3-carbonyl)-amino]-2,2-dimethyl-propionic acid] | 6.11 µM | 30 | 183 µM
N#Cc1ccc([C@H](CC(=O)O)NC(=O)c2nc(C#N)c3cc(Oc4ccccc4)ccc3c2O)cc1 [Compound 172, 3-(S)-[(1-Cyano-4-hydroxy-7-phenoxy-isoquinoline-3-carbonyl)-amino]-3-(4-cyano-phenyl)-propionic acid] | 2.83 µM | 10 | 27.6 µM
CC(C)(CCC(=O)O)NC(=O)c1nc(C#N)c2cc(Oc3ccccc3)ccc2c1O [Compound 46, 4-(1-Cyano-4-hydroxy-7-phenoxyisoquinoline-3-carboxamido)-4-methylpentanoic acid] | 0.94 µM | 22 | 20.8 µM
N#Cc1nc(C(=O)NC[C@H](Cc2ccccc2)C(=O)O)c(O)c2ccc(Oc3ccccc3)cc12 [Compound 49, (S)-2-Benzyl-3-[(1-cyano-4-hydroxy-7-phenoxy-isoquinoline-3-carbonyl)-amino]-propionic acid] | 1.66 µM | 14 | 23.9 µM
CC(C)(CNC(=O)c1ncc2cc(-c3ccccc3)ccc2c1O)C(=O)O [Compound 129, 3-[(4-Hydroxy-7-phenyl-isoquinoline-3-carbonyl)-amino]-2,2-dimethyl-propionic acid] | 25.3 µM | 7 | 180 µM
N#Cc1nc(C(=O)NCCC(=O)O)c(O)c2ccc(-c3ccccc3)cc12 [Compound 137, 3-[(1-Cyano-4-hydroxy-7-phenyl-isoquinoline-3-carbonyl)-amino]-propionic acid] | 0.61 µM | 6 | 3.67 µM
COc1ccc(Oc2ccc3c(O)c(C(=O)NCC(C)(C)C(=O)O)nc(C#N)c3c2)cc1 [Compound 20, 3{-[1-Cyano-4-hydroxy-7-(4-methoxy-phenoxy)-isoquinoline-3-carbonyl]-amino}-2,2-dimethyl-propionic acid] | 0.35 µM | 15 | 5.22 µM

Continued by falling IC50 (PHD1 (EGLN2)), values first:

IC50 (PHD1 (EGLN2)) | PHD2/PHD1 (PHD1 (EGLN2)) | IC50 (PHD2 (EGLN1)) | SMILES
43.6 µM | 5 | > 200 µM | N#Cc1nc(C(=O)NCCC[C@H](N)C(=O)O)c(O)c2ccc(Oc3ccccc3)cc12.O=C(O)C(F)(F)F [Compound 163, (S)-2-[Amino-5-(1-cyano-4-hydroxy-7-phenoxy-isoquinoline-3-carbonyl)-amino]-pentanoic acid 2,2,2-trifluoroacetic acid (1:1)]
11.8 µM | 17 | 200 µM | C[C@H](NC(=O)c1nc(C#N)c2cc(Oc3ccccc3)ccc2c1O)[C@@H](C)C(=O)O [Compound 72, (2R,3S)-3-[(1-Cyano-4-hydroxy-7-phenoxy-isoquinoline-3-carbonyl)-amino]-2-methyl-butyric acid]
5.51 µM | 7 | 40.8 µM | O=C(NCC1(C(=O)O)CCC1)c1ncc2cc(Oc3ccccc3)ccc2c1O [Compound 13, 1-{[(4-Hydroxy-7-phenoxy-isoquinoline-3-carbonyl)-amino]-methyl}-cyclobutanecarboxylic acid]
5.42 µM | 9 | 50.1 µM | N#Cc1nc(C(=O)N[C@H](CC(=O)O)c2ccccc2)c(O)c2ccc(Oc3ccccc3)cc12 [Compound 48, (R)-3-[(1-Cyano-4-hydroxy-7-phenoxy-isoquinoline-3-carbonyl)-amino]-3-phenyl-propionic acid]
3.3 µM | 6 | 19.5 µM | COc1ccc(Oc2ccc3c(O)c(C(=O)NCC(C)(C)C(=O)O)ncc3c2)cc1 [Compound 104, 3-{[4-Hydroxy-7-(4-methoxy-phenoxy)-isoquinoline-3-carbonyl]-amino}-2,2-dimethyl-propionic acid]
2.77 µM | 5 | 12.7 µM | CC(C)(CNC(=O)c1ncc2cc(Oc3ccc(Cl)c(F)c3)ccc2c1O)C(=O)O [Compound 23, 3-{[7-(4-Chloro-3-fluoro-phenoxy)-4-hydroxy-isoquinoline-3-carbonyl]-amino}-2,2-dimethyl-propionic acid]
1.63 µM | 8 | 12.6 µM | CC(C)CC(CNC(=O)c1nc(C#N)c2cc(Oc3ccccc3)ccc2c1O)CC(=O)O (stereo not drawn) [Compound 183, 3-{[(1-Cyano-4-hydroxy-7-phenoxy-isoquinoline-3-carbonyl)-amino]-methyl}-5-methyl-hexanoic acid]
0.95 µM | 9 | 8.54 µM | N#Cc1nc(C(=O)NCC(C(=O)O)C2CC2)c(O)c2ccc(Oc3ccc(F)cc3)cc12 (stereo not drawn) [Compound 179, 3{-[1-Cyano-7-(4-fluoro-phenoxy)-4-hydroxy-isoquinoline-3-carbonyl]-amino}-2-cyclopropyl-propionic acid]
0.74 µM | 5 | 3.38 µM | C[C@](O)(CNC(=O)c1nc(C#N)c2cc(Oc3ccccc3)ccc2c1O)C(=O)O [Compound 73, (S)-3-(1-Cyano-4-hydroxy-7-phenoxyisoquinoline-3-carboxamido)-2-hydroxy-2-methylpropanoic acid]
0.73 µM | 8 | 5.99 µM | N#Cc1nc(C(=O)NCC(F)(F)C(=O)O)c(O)c2ccc(Oc3ccccc3)cc12 [Compound 65, 3-[(1-Cyano-4-hydroxy-7-phenoxy-isoquinoline-3-carbonyl)-amino]-2,2-difluoro-propionic acid]
0.41 µM | 22 | 9.12 µM | CC(C)(CNC(=O)c1nc(C#N)c2cc(Oc3ccccc3)ccc2c1O)C(=O)O [Compound 77, 3-[(1-Cyano-4-hydroxy-7-phenoxy-isoquinoline-3-carbonyl)-amino]-2,2-dimethyl-propionic acid]
0.11 µM | 18 | 1.9 µM | N#Cc1nc(C(=O)NCC2(C(=O)O)CCC2)c(O)c2ccc(Sc3ccccc3)cc12 [Compound 154, 1-{[(1-Cyano-4-hydroxy-7-phenylsulfanyl-isoquinoline-3-carbonyl)-amino]-methyl}-cyclobutanecarboxylic acid]
